Measured values as given in patent US20250230193A1, “CYCLIC COMPOUND HAVING SELECTIVE KRAS INHIBITORY EFFECT ON HRAS AND NRAS” (CHUGAI SEIYAKU KABUSHIKI KAISHA, priority 2022, published 2025).

Tests used:
[1] = target: GDP-bound NRAS wild-type protein (Homo sapiens, UniProt P01111); experiment: Binding to NRAS by surface plasmon resonance (SPR), Single Cycle Kinetics; conditions: KD ratio, GDP-bound NRAS wild-type vs GDP-bound KRAS wild-type, SPR
[2] = target: GDP-bound HRAS wild-type protein (Homo sapiens, UniProt P01112); experiment: Binding to HRAS by surface plasmon resonance (SPR), Single Cycle Kinetics; conditions: KD ratio, GDP-bound HRAS wild-type vs GDP-bound KRAS wild-type, SPR
GDP-bound HRAS wild-type protein, sequence (P01112 whole entry): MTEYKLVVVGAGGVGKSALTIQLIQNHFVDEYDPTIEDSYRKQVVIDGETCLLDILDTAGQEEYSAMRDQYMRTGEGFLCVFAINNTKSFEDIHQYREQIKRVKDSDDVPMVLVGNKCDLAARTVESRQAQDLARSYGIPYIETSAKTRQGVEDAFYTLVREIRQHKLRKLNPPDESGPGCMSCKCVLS

GDP-bound NRAS wild-type protein, sequence (P01111 whole entry): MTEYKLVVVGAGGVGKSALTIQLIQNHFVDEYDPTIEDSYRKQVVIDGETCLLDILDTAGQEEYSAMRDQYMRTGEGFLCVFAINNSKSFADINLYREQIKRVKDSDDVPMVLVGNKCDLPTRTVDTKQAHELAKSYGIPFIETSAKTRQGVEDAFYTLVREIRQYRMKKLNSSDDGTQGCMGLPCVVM

| SMILES | NRAS/KRAS (ratio of KD value for NRAS to KD value for KRAS) [1] | HRAS/KRAS (ratio of KD value for HRAS to KD value for KRAS) [2] |
| --- | --- | --- |
| CCC[C@H]1C(=O)N[C@@H]([C@@H](C)CC)C(=O)N(C)CC(=O)N(C)[C@H]2C/C=C\CCN(C2=O)[C@@H](Cc2ccc(C(F)(F)F)cc2)C(=O)N(C)CC(=O)N[C@@H](CCc2cc(F)c(C(F)(F)F)c(F)c2)C(=O)N2C[C@H](OCC)C[C@H]2C(=O)NC2(CC(F)(F)C2)C(=O)N(C)[C@@H](C2CCCC2)C(=O)N(C)[C@H](C(=O)N(C)CC)CC(=O)N1C [PP1735] | AA (a compound having 20 or more is denoted as AA) | A (a compound having 10 or more and less than 20 is denoted as A) |
| CCC[C@H]1C(=O)N[C@@H]([C@@H](C)CC)C(=O)N(C)CC(=O)N(C)[C@H]2C/C=C\CCN(C2=O)[C@@H](Cc2ccc(C(F)(F)F)cc2)C(=O)N(C)CC(=O)N[C@@H](CCc2cc(F)c(C(F)(F)F)c(F)c2)C(=O)N2C[C@H](OCC)C[C@H]2C(=O)NC2(CC(F)(F)C2)C(=O)N(C)[C@@H](C2CCCC2)C(=O)N(C)[C@H](C(=O)N(C)CCC)CC(=O)N1C [PP1736] | A (a compound having 10 or more and less than 20 is denoted as A) | A (a compound having 10 or more and less than 20 is denoted as A) |
| C#CC[C@H]1C(=O)N[C@@H]([C@@H](C)CC)C(=O)N(C)CC(=O)N(C)[C@H]2C/C=C\CCN(C2=O)[C@@H](Cc2ccc(C(F)(F)F)cc2)C(=O)N(C)CC(=O)N[C@@H](CCc2cc(F)c(C(F)(F)F)c(F)c2)C(=O)N2C[C@H](OCC)C[C@H]2C(=O)NC2(CC(F)(F)C2)C(=O)N(C)[C@@H](C2CCCC2)C(=O)N(C)[C@H](C(=O)N(C)CCC)CC(=O)N1C [PP1737] | A (a compound having 10 or more and less than 20 is denoted as A) | A (a compound having 10 or more and less than 20 is denoted as A) |
| CCO[C@@H]1C[C@H]2C(=O)NC3(CC(F)(F)C3)C(=O)N(C)[C@@H](C3CCCC3)C(=O)N(C)[C@H](C(=O)N(C)CC)CC(=O)N(C)[C@@H](CC3CC3)C(=O)N[C@@H]([C@@H](C)CC)C(=O)N(C)CC(=O)N(C)[C@H]3C/C=C\CCN(C3=O)[C@@H](Cc3ccc(C(F)(F)F)cc3)C(=O)N(C)CC(=O)N[C@@H](CCc3cc(F)c(C(F)(F)F)c(F)c3)C(=O)N2C1 [PP1738] | AA (a compound having 20 or more is denoted as AA) | A (a compound having 10 or more and less than 20 is denoted as A) |
| CCCN(C)C(=O)[C@@H]1CC(=O)N(C)[C@@H](CC2CC2)C(=O)N[C@@H]([C@@H](C)CC)C(=O)N(C)CC(=O)N(C)[C@H]2C/C=C\CCN(C2=O)[C@@H](Cc2ccc(C(F)(F)F)cc2)C(=O)N(C)CC(=O)N[C@@H](CCc2cc(F)c(C(F)(F)F)c(F)c2)C(=O)N2C[C@H](OCC)C[C@H]2C(=O)NC2(CC(F)(F)C2)C(=O)N(C)[C@@H](C2CCCC2)C(=O)N1C [PP1739] | AA (a compound having 20 or more is denoted as AA) | AA (a compound having 20 or more is denoted as AA) |
| CCCC[C@H]1C(=O)N[C@@H]([C@@H](C)CC)C(=O)N(C)CC(=O)N(C)[C@H]2C/C=C\CCN(C2=O)[C@@H](Cc2ccc(C(F)(F)F)cc2)C(=O)N(C)CC(=O)N[C@@H](CCc2cc(F)c(C(F)(F)F)c(F)c2)C(=O)N2C[C@H](OCC)C[C@H]2C(=O)NC2(CC(F)(F)C2)C(=O)N(C)[C@@H](C2CCCC2)C(=O)N(C)[C@H](C(=O)N(C)C)CC(=O)N1C [PP1740] | A (a compound having 10 or more and less than 20 is denoted as A) | A (a compound having 10 or more and less than 20 is denoted as A) |
| CCO[C@@H]1C[C@H]2C(=O)NC3(CC(F)(F)C3)C(=O)N(C)[C@@H](C3CCCC3)C(=O)N(C)[C@H](C(=O)N(C)C)CC(=O)N(C)[C@@H](CC(C)C)C(=O)N[C@@H]([C@@H](C)CC)C(=O)N(C)CC(=O)N(C)[C@H]3C/C=C\CCN(C3=O)[C@@H](Cc3ccc(C(F)(F)F)cc3)C(=O)N(C)CC(=O)N[C@@H](CCc3cc(F)c(C(F)(F)F)c(F)c3)C(=O)N2C1 [PP1741] | A (a compound having 10 or more and less than 20 is denoted as A) | B (a compound having 3 or more and less than 10 is denoted as B) |
| CCO[C@@H]1C[C@H]2C(=O)NC3(CC(F)(F)C3)C(=O)N(C)[C@@H](C3CCCC3)C(=O)N(C)[C@H](C(=O)N(C)C)CC(=O)N(C)[C@@H](CC3CCC3)C(=O)N[C@@H]([C@@H](C)CC)C(=O)N(C)CC(=O)N(C)[C@H]3C/C=C\CCN(C3=O)[C@@H](Cc3ccc(C(F)(F)F)cc3)C(=O)N(C)CC(=O)N[C@@H](CCc3cc(F)c(C(F)(F)F)c(F)c3)C(=O)N2C1 [PP1742] | A (a compound having 10 or more and less than 20 is denoted as A) | A (a compound having 10 or more and less than 20 is denoted as A) |
| CCCN(C)C(=O)[C@@H]1CC(=O)N(C)[C@@H](COC)C(=O)N[C@@H]([C@@H](C)CC)C(=O)N(C)CC(=O)N(C)[C@H]2C/C=C\CCN(C2=O)[C@@H](Cc2ccc(C(F)(F)F)cc2)C(=O)N(C)CC(=O)N[C@@H](CCc2cc(F)c(C(F)(F)F)c(F)c2)C(=O)N2C[C@H](OCC)C[C@H]2C(=O)NC2(CC(F)(F)C2)C(=O)N(C)[C@@H](C2CCCC2)C(=O)N1C [PP1743] | AA (a compound having 20 or more is denoted as AA) | A (a compound having 10 or more and less than 20 is denoted as A) |
| CCCOC[C@H]1C(=O)N[C@@H]([C@@H](C)CC)C(=O)N(C)CC(=O)N(C)[C@H]2C/C=C\CCN(C2=O)[C@@H](Cc2ccc(C(F)(F)F)cc2)C(=O)N(C)CC(=O)N[C@@H](CCc2cc(F)c(C(F)(F)F)c(F)c2)C(=O)N2C[C@H](OCC)C[C@H]2C(=O)NC2(CC(F)(F)C2)C(=O)N(C)[C@@H](C2CCCC2)C(=O)N(C)[C@H](C(=O)N(C)CCC)CC(=O)N1C [PP1744] | A (a compound having 10 or more and less than 20 is denoted as A) | A (a compound having 10 or more and less than 20 is denoted as A) |
| CCO[C@@H]1C[C@H]2C(=O)NC3(CC(C)(C)C3)C(=O)N(C)[C@@H](C3CCCC3)C(=O)N(C)[C@H](C(=O)N(C)C)CC(=O)N(C)[C@@H](CC)C(=O)N[C@@H]([C@@H](C)CC)C(=O)N(C)CC(=O)N(C)[C@H]3C/C=C\CCN(C3=O)[C@@H](Cc3ccc(C(F)(F)F)cc3)C(=O)N(C)CC(=O)N[C@@H](CCc3ccc(C(F)(F)F)c(Cl)c3)C(=O)N2C1 [PP1746] | A (a compound having 10 or more and less than 20 is denoted as A) | A (a compound having 10 or more and less than 20 is denoted as A) |
| CCO[C@@H]1C[C@H]2C(=O)NC3(CC(C)(C)C3)C(=O)N(C)[C@@H](C3CCCC3)C(=O)N(C)[C@H](C(=O)N(C)C)CC(=O)N(C)[C@@H](CC(F)F)C(=O)N[C@@H]([C@@H](C)CC)C(=O)N(C)CC(=O)N(C)[C@H]3C/C=C\CCN(C3=O)[C@@H](Cc3ccc(C(F)(F)F)cc3)C(=O)N(C)CC(=O)N[C@@H](CCc3ccc(C(F)(F)F)c(Cl)c3)C(=O)N2C1 [PP1747] | A (a compound having 10 or more and less than 20 is denoted as A) | A (a compound having 10 or more and less than 20 is denoted as A) |
| CCC[C@H]1C(=O)N[C@@H]([C@@H](C)CC)C(=O)N(C)CC(=O)N(C)[C@H]2C/C=C\CCN(C2=O)[C@@H](Cc2ccc(C(F)(F)F)cc2)C(=O)N(C)CC(=O)N[C@@H](CCc2ccc(C(F)(F)F)c(Cl)c2)C(=O)N2C[C@H](OCC)C[C@H]2C(=O)NC2(CC(C)(C)C2)C(=O)N(C)[C@@H](C2CCCC2)C(=O)N(C)[C@H](C(=O)N(C)C)CC(=O)N1C [PP1748] | A (a compound having 10 or more and less than 20 is denoted as A) | B (a compound having 3 or more and less than 10 is denoted as B) |
| CCO[C@@H]1C[C@H]2C(=O)NC3(CC(C)(C)C3)C(=O)N(C)[C@@H](C3CCCC3)C(=O)N(C)[C@H](C(=O)N(C)C)CC(=O)N(C)[C@@H](CC3CC3)C(=O)N[C@@H]([C@@H](C)CC)C(=O)N(C)CC(=O)N(C)[C@H]3C/C=C\CCN(C3=O)[C@@H](Cc3ccc(C(F)(F)F)cc3)C(=O)N(C)CC(=O)N[C@@H](CCc3ccc(C(F)(F)F)c(Cl)c3)C(=O)N2C1 [PP1749] | A (a compound having 10 or more and less than 20 is denoted as A) | A (a compound having 10 or more and less than 20 is denoted as A) |
| CCCC[C@H]1C(=O)N[C@@H]([C@@H](C)CC)C(=O)N(C)CC(=O)N(C)[C@H]2C/C=C\CCN(C2=O)[C@@H](Cc2ccc(C(F)(F)F)cc2)C(=O)N(C)CC(=O)N[C@@H](CCc2ccc(C(F)(F)F)c(Cl)c2)C(=O)N2C[C@H](OCC)C[C@H]2C(=O)NC2(CC(C)(C)C2)C(=O)N(C)[C@@H](C2CCCC2)C(=O)N(C)[C@H](C(=O)N(C)C)CC(=O)N1C [PP1750] | A (a compound having 10 or more and less than 20 is denoted as A) | B (a compound having 3 or more and less than 10 is denoted as B) |
| CCO[C@@H]1C[C@H]2C(=O)NC3(CC(C)(C)C3)C(=O)N(C)[C@@H](C3CCCC3)C(=O)N(C)[C@H](C(=O)N(C)C)CC(=O)N(C)[C@@H](CC(C)C)C(=O)N[C@@H]([C@@H](C)CC)C(=O)N(C)CC(=O)N(C)[C@H]3C/C=C\CCN(C3=O)[C@@H](Cc3ccc(C(F)(F)F)cc3)C(=O)N(C)CC(=O)N[C@@H](CCc3ccc(C(F)(F)F)c(Cl)c3)C(=O)N2C1 [PP1751] | A (a compound having 10 or more and less than 20 is denoted as A) | A (a compound having 10 or more and less than 20 is denoted as A) |
